Results published in patent US9271982B2, “Animal feed supplement comprising ractopamine and caffeine” (Rivalea (Australia) Pty Ltd, priority 2012, dated 2016).
Where a name gives a salt, the structure may show the parent alone. Read-outs that look alike come from different tables or passages of the source.

Columns and labels:
[1] = system: finisher gilts and Improvac males; experiment: Study 1: deaths, removals and animal welfare during the test period; conditions: for Deaths (dead/total pigs in treatment group) / Deaths, percentage of pigs: Study 1, entire 35 day test period
Description: (§1) Pigs were selected to start on trial over three days during week 20 of the test year. […] All diets were formulated to contain 0.62 g available lysine/MJ DE and 13.8 MJ DE/kg.

[2] = system: finisher pigs; experiment: Earlier study evaluating caffeine inclusion rates in finisher diets; format: in vivo, pig; conditions: for Feed intake: without caffeine 2.62 kg/d
Description: The management of weight and carcass P2 during Autumn is critical in markets that are paid on a grid of both parameters. The rate of fat deposition is at a maximum during the finisher period and is related to the amount of energy consumed by the pig. Excess energy intake above that required for protein deposition during this time is deposited as fat. As such, strategies to reduce feed intake from the excessive highs during autumn are often implemented. Caffeine is one ingredient that can be included in finisher diets to limit excessive feed intake. A study evaluating caffeine inclusion rates was conducted with the results confirming the intake restricting effects of caffeine inclusion. Feed intake was reduced from 2.62 kg/d to 2.45 and 2.33 kg/d with caffeine included in the diet at either 0.5 kg/t or 0.75 kg/t respectively. […] There has however been no evaluation of the effects of caffeine inclusion when the finisher diet also contains Paylean™. As such, the aim of this study was to determine the effects of caffeine inclusion when Paylean™ is also present in the finisher diet.

[3] = system: finisher gilts and Improvac males; format: in vivo, pig; conditions: for ADFI / FCR / Live weight Day 0 / Live weight Day 14 / Live weight Day 35: RAC 7.5 ppm / caffeine 0.5 kg/t in feed; for Live weight Day 0: day 0 baseline, 16 wk of age; for % pigs P2 >12 mm (carcass weight as covariate): carcass weight included as covariate; for % pigs P2 >12 mm: no covariate
Description: as §1
(§2) Data were subjected to an analysis of variance (ANOVA) with the main effects being dietary treatment and sex. Replicate (start date within week) was included in the analyses to account for the blocking factor. The experimental unit for all analyses was the pen of pigs. All analyses were performed using Genstat 8th Edition (Payne R W, Harding S A, Genstat Committee 2005 Genstat release 8 reference manual, USN International: Oxford UK)

[4] = system: female and immunocastrated male pigs; experiment: Study 3: RAC+caffeine feeding strategy over summer, growth performance and carcase characteristics; format: in vivo, pig
Description: as §2, with “et al. 2005).” for “R W, Harding S A, Genstat Committee 2005 Genstat release 8 reference manual, USN International: Oxford UK)”

[5] = system: female and immunocastrated male pigs; experiment: Study 2: RAC+caffeine strategy on heavier weight finishers, growth performance and carcass characteristics; format: in vivo, pig; conditions: for ADFI / ADG / FCR: Study 2, RAC 7.5 ppm
Description: Pigs were selected over a two week period. […] A: Control; B: […] The interpretation of results is then a direct measure of the impact of commercial diets without RAC and commercial diets that do contain RAC. […] Pigs were slaughtered in a commercial abattoir at the conclusion of the test period. A subset of carcasses (n=12 per treatment) were randomly selected at the abattoir and followed through the boning room for meat yield assessment. Data were subjected to an analysis of variance (ANOVA) with the main effects being dietary treatment and sex. Replicate (start date within week) was included in, the analyses to account for the blocking factor. The experimental unit for all analyses was the pen of pigs. All analyses were performed using Genstat 8th Edition (Payne et al. 2005).

[6] = system: female and immunocastrated male pigs; conditions: Study 3, 35 day test period
Description: All animals were selected to start the trial on the one day. Prior to the start of the trial, all pigs were offered a commercial grower diet (no Paylean) and had been in their allocated pens from 10 weeks of age. No remixing of pigs occurred before the start of the test period. […] Oxytetracycline was included in water for two days every fortnight for lawsonia control.
The priming Improvac™ vaccination was administered to the male pigs at 13 weeks of age and the second vaccination at 17 weeks of age (day 0 of the experimental period). Pen weights were recorded at the beginning of the experimental period (day 0, 17 weeks of age) and again at day 14 and day 35 (prior to slaughter). Pen feed Intakes were also recorded over these time periods as measured by feed disappearance and feed conversion efficiency subsequently calculated. All deaths and removals were recorded and taken into account when calculating feed intake and feed efficiency by the adjustment of the number of days that pigs were on trial.

[7] = system: female and immunocastrated male pigs; experiment: Study 2: carcass (meat) yield in a subset of carcasses followed through the boning room; format: in vivo, pig; conditions: Study 2 subset of carcasses, n = 12 per treatment
Description: Pigs were slaughtered in a commercial abattoir at the conclusion of the test period. A subset of carcasses (n=12 per treatment) were randomly selected at the abattoir and followed through the boning room for meat yield assessment.
as §2, with “included in,” for “included in”, “(Payne et al. 2005).” for “(Payne R W, Harding S A, Genstat Committee 2005 Genstat release 8 reference manual, USN International: Oxford UK)”

[8] = Study 1 (autumn), diets fed 35 days
[9] = Study 1 (autumn), diets fed 35 days, slaughter at 21 wk
[10] = caffeine 0.5 kg/t in feed, 0-14 days
[11] = caffeine 0.5 kg/t in feed, 0-28 days
[12] = caffeine 0.5 kg/t in feed, 14-28 days
[13] = Study 2, carcass weight included as covariate

Cn1c(=O)c2c(ncn2C)n(C)c1=O [Caffeine]
Off trial: Meningitis (number of pigs) ([1]; Large White×Landrace, pig, in vivo): 1 | TOTAL deaths and removals (number of pigs) ([1]; Study 1, 0-14 days): 0 | Deaths: Ileitis (number of pigs) ([1]; Study 1, 14-35 days): 1 | Deaths: SD (number of pigs) ([1]; Study 1, 14-35 days): 1 | TOTAL deaths and removals (number of pigs) ([1]; Study 1, 14-35 days): 4 | Deaths (dead/total pigs in treatment group) [1]: 2/307 | Deaths, percentage of pigs [1]: 0.65% | Off trial: Lame (number of pigs) ([1]; both, Large White×Landrace, pig, in vivo): 1 | Reduction of growth rate ([2]; caffeine 0.5 kg/t in diet): 95 g/day | Feed intake ([2]; caffeine 0.5 kg/t in diet): 2.45 kg/day | Reduction of growth rate ([2]; caffeine 0.75 kg/t in diet): 163 g/day | Feed intake ([2]; caffeine 0.75 kg/t in diet): 2.33 kg/day | ADFI ([3]; Study 1 (autumn), 0-14 days): 2.44 kg/day | FCR ([3]; Study 1 (autumn), 0-14 days): 2.64 kg/kg | ADFI ([3]; Study 1 (autumn), 0-35 days): 2.70 kg/day | FCR ([3]; Study 1 (autumn), 0-35 days): 2.78 kg/kg | ADFI ([3]; Study 1 (autumn), 14-35 days): 2.88 kg/day | FCR ([3]; Study 1 (autumn), 14-35 days): 2.89 kg/kg | Live weight Day 0 ([3]; Study 1 (autumn)): 61.3 kg | Live weight Day 14 ([3]; Study 1 (autumn)): 74.2 kg | Live weight Day 35 ([3]; Study 1 (autumn)): 95.3 kg | Dressing % [3, 8]: 77.9% | Carcass P2 (carcass weight as covariate) [3, 9]: 10.4 mm | Carcass weight [3, 9]: 74.1 | % pigs P2 >12 mm (carcass weight as covariate) [3, 8]: 22.3% | % pigs P2 >12 mm [3, 8]: 19.5% | Carcass weight ([3]; Study 1, statistical comparison between diets): reduced carcass weight compared to either of the RAC treatment groups

CC(CCc1ccc(O)cc1)NCC(O)c1ccc(O)cc1 (racemic) [RAC, Ractopamine hydrochloride]
Off trial: Lame (number of pigs) ([1]; Study 1, 0-14 days): 1 | Off trial: Meningitis (number of pigs) ([1]; Study 1, 0-14 days): 1 | Off trial: Wound (number of pigs) ([1]; Study 1, 0-14 days): 1 | TOTAL deaths and removals (number of pigs) ([1]; Study 1, 0-14 days): 3 | Deaths: Hernia (number of pigs) ([1]; Study 1, 14-35 days): 1 | Deaths: Ileitis (number of pigs) ([1]; Study 1, 14-35 days): 1 | Off trial: Lame (number of pigs) ([1]; Study 1, 14-35 days): 1 | TOTAL deaths and removals (number of pigs) ([1]; Study 1, 14-35 days): 3 | Deaths (dead/total pigs in treatment group) [1]: 2/298 | Deaths, percentage of pigs [1]: 0.67% | Live weight Day 14 ([4]; Study 3 (summer), RAC 7.5 ppm, caffeine 0.5 kg/t in feed, day 14): 79.4 kg | Live weight Day 35 ([4]; Study 3 (summer), RAC 7.5 ppm, caffeine 0.5 kg/t in feed, day 35): 100.5 kg | Average daily feed intake ([4]; Study 3 (summer), Day 0-14): 2.36 kg/day | Average daily gain ([4]; Study 3 (summer), Day 0-14): 1.132 kg/day | Feed conversion ratio ([4]; Study 3 (summer), Day 0-14): 2.15 kg/kg | Average daily feed intake ([4]; Study 3 (summer), Day 0-35): 2.62 kg/day | Average daily gain ([4]; Study 3 (summer), Day 0-35): 1.056 kg/day | Feed conversion ratio ([4]; Study 3 (summer), Day 0-35): 2.48 kg/kg | Average daily feed intake ([4]; Study 3 (summer), Day 14-35): 2.79 kg/day | Average daily gain ([4]; Study 3 (summer), Day 14-35): 1.004 kg/day | Feed conversion ratio ([4]; Study 3 (summer), Day 14-35): 2.80 kg/kg | Loin muscle depth ([4]; Study 3 (summer), carcase): 58.4 mm | P2 ([4]; Study 3 (summer), carcase, carcase weight not taken into account): 11.3 mm | Live weight Day 0 ([4]; Study 3 (summer, 17-22 wk), RAC 7.5 ppm, caffeine 0.5 kg/t in feed, day 0 baseline): 63.5 kg | Response (feed efficiency, daily gain, carcass composition) in words ([4]; Study 3, RAC at 7.5 ppm over the summer period): negligible | Average feed consumed ([4]; Study 3, entire test period): 2.6 kg feed/day | Feed efficiency, more efficient than the control animals ([4]; Study 3, initial 14 day period, not significant): approximately 4% | Average feed intake ([4]; Study 3, initial 14 days): 2.36 kg/day | Dressing % ([5]; Study 2): 77.1% | Live weight Day 0 ([5]; Study 2 (22-26 wk), RAC 7.5 ppm, caffeine 0.5 kg/t in feed, day 0 baseline): 92.1 kg | Live weight Day 14 ([5]; Study 2 (22-26 wk), RAC 7.5 ppm, caffeine 0.5 kg/t in feed, day 14): 106 kg | Live weight Day 28 ([5]; Study 2 (22-26 wk), RAC 7.5 ppm, caffeine 0.5 kg/t in feed, day 28, in kg (unit assumed)): 120.1 | ADFI [5, 10]: 2.92 kg/day | ADG [5, 10]: 0.995 kg/day | FCR [5, 10]: 2.98 kg/kg | ADFI [5, 11]: 3.04 kg/day | ADG [5, 11]: 1.002 kg/day | FCR [5, 11]: 3.11 kg/kg | ADFI [5, 12]: 3.15 kg/day | ADG [5, 12]: 1.008 kg/day | FCR [5, 12]: 3.28 kg/kg | Carcass P2 (carcass weight as covariate) [5, 13]: 11.9 mm | Loin depth (carcass weight as covariate) [5, 13]: 58.3 mm | Carcass P2 ([5]; Study 2, no covariate): 12.0 mm | Carcass weight ([5]; Study 2, slaughter at 26 wk): 92.9 kg | Combined deaths and removals (number/total pigs) [6]: 5/228 | Combined deaths and removals, percentage [6]: 2.2% | Deaths: APP (number of pigs) [6]: 2 | Deaths: Lame (number of pigs) [6]: 2 | Removals: Unthrifty (number of pigs) [6]: 1 | Carcass P2 (carcass weight as covariate) [7]: 12.2 mm | Cold carcass weight [7]: 82.6 kg | HSCW [7]: 93.4 kg | Loin depth (carcass weight as covariate) [7]: 58.2 mm | Percentage Yield: Belly [7]: 20.7% | Percentage Yield: Belly Ribs [7]: 11.39% | Percentage Yield: Leg 90% chemical lean [7]: 6.90% | Percentage Yield: Middle 60-65% chemical lean [7]: 2.43% | Percentage Yield: Middle 80-85% chemical lean [7]: 9.72% | Percentage Yield: Middle rind plus fat [7]: 10.58% | Percentage Yield: Middle total fat [7]: 7.36% | Percentage Yield: Retail leg [7]: 35.80% | Percentage Yield: Tenderloin [7]: 3.65% | Percentage Yield: Topside cap off rind less [7]: 7.79% | ADFI ([3]; Study 1 (autumn), 0-14 days): 2.72 kg/day | FCR ([3]; Study 1 (autumn), 0-14 days): 2.34 kg/kg | ADFI ([3]; Study 1 (autumn), 0-35 days): 2.96 kg/day | FCR ([3]; Study 1 (autumn), 0-35 days): 2.67 kg/kg | ADFI ([3]; Study 1 (autumn), 14-35 days): 3.13 kg/day | FCR ([3]; Study 1 (autumn), 14-35 days): 2.92 kg/kg | Live weight Day 0 ([3]; Study 1 (autumn)): 61.2 kg | Live weight Day 14 ([3]; Study 1 (autumn)): 77.6 kg | Live weight Day 35 ([3]; Study 1 (autumn)): 100.1 kg | Dressing % [3, 8]: 77.6% | Carcass P2 (carcass weight as covariate) [3, 9]: 10.9 mm | Carcass weight [3, 9]: 77.6 | % pigs P2 >12 mm (carcass weight as covariate) [3, 8]: 26.4% | % pigs P2 >12 mm [3, 8]: 29.0%
